What was measured:
CYP3A4 = CYP3A4 (Homo sapiens, UniProt P08684); assay: CYP3A4 fluorescent MBI test; type: in vitro ADME; design: host or cells: E. coli; settings: E. coli-expressing CYP3A4, substrate 7-BFC, pre-reaction 0 or 30 minutes
Procedure: The CYP3A4 fluorescent MBI test is a test to examine enhancement of CYP3A4 inhibition by metabolic reaction of the compound. Here, E. coli-expressing CYP3A4 was used as an enzyme, and a reaction wherein 7-benzyloxy trifluoromethylcumarin (BFC) was debenzylated by the CYP3A4 enzyme into a fluorescent metabolite 7-hydroxytrifluoromethylcumarin (HFC) was employed as an indicator reaction.
The reaction conditions are as follows.
Substrate: […] 7-BFC; Pre-reaction time: 0 or 30 minutes; Reaction time: 15 minutes; Reaction temperature: 25° C. […]
The enzyme and a test compound solution are added to a K-Pi buffer (pH 7.4) in the aforementioned amounts for the pre-reaction so that a pre-reaction solution is prepared, and this solution is put into a 96-well plate. […] With respect to each of the plates on which the indicator reaction is performed, the fluorescence value of the metabolite 7-HFC is measured with a fluorescence plate reader (Ex=420 nm, Em=535 nm).
Control (100%) is prepared by adding only DMSO, a solvent to dissolve the test compound, to the reaction system. The remaining activity (%) at each concentration after adding the test compound solution is calculated, and the IC50 value is calculated from the concentration and inhibition percentage by inverse estimation with the logistic model. […]

Aβ42 production = assay: Suppressive activity of Aβ42 production in neuroblast expressing human APP695 (ELISA of secreted Aβ42); type: cell-based; settings: secreted Aβ42, SH-SY5Y-APPwt cells, 24 hours
Procedure: Dose dependent effect of each test compound was evaluated by measurement of secreted Aβ42 and cell viability in SH-SY5Y-APPwt cells. Secreted Aβ42 was quantified by an ELISA assay and cell viability was measured using a cell count reagent.
SH-SY5Y-APPwt cells were generated from human SH-SY5Y neuroblast by transfection of human APP695 DNA as a stable cell-line and cultured in DMEM supplemented with 10% FCS.
SH-SY5Y-APPwt cells were plated at 1.2×10^5 cells/well/150 μl in 96-well plates. A solution of the test compound in DMSO was diluted with DMEM to a concentration 4-fold higher than the final concentration. 50 μl of the diluted solution was sufficiently mixed with the cells and the final DMEM solution was 200 μl/well. The final DMSO concentration was 1%. As a control compound, a γ-secretase inhibitor, DAPT (Calbiochem) was used. 24 hours after, the culture supernatant was collected and appropriately diluted for ELISA quantification of Aβ42. Cells were used for cell viability assay.
Human/Rat β Amyloid(42) ELISA Kit WAKO (WAKO Pure Chemical Industries) was used for ELISA. ELISA was carried out according to the protocols recommended by the manufacturer's instructions. The results were shown as percentage to the Aβ concentration in the medium of control group (% of Control) and then IC50 values of each test compounds were calculated. Cell viability was measured using Cell Count Reagent SF (NACALAI TESQUE) according to the protocols recommended by the manufacturer's instructions. The results were shown as percentage to cell viability of control group (% of Control) and reduction of cell viability was not seen.

hERG channel (IKr) = target: T1, hERG channel (IKr) (Homo sapiens, UniProt Q12809); assay: hERG test (whole-cell patch clamp, IKr); type: cell-based; settings: HEK293 cells that express hERG, pH 7.4, HEK293 cell expressing hERG, room temperature, concentration not given, read-out: inhibitory percentage relative to the maximum tail current (IKr)
T1 construct: expressed in transfected cells; host or cells: HEK293
From the text: For the purpose of risk assessment for QT prolongation on an electrocardiogram, the action on delayed rectifier K+ current (IKr) which plays an important role on a process of ventricular repolarization is studied using a HEK293 cell with a human ether-a-go-go related gene (hERG) channel expressed therein.
A cell is maintained at a membrane potential of −80 mV, and then +50 mV of a depolarizing stimulus is applied to the cell for 2 seconds and further −50 mV of a repolarizing stimulus is applied thereto for 2 seconds by a whole-cell patch clamp technique with a fully-automatic patch clamp system (PatchXpress 7000A, Axon Instruments Inc.), and the induced IKr is recorded. As the current generated is stabilized, an extracellular fluid with the test compound dissolved therein at a target concentration (NaCl: 137 mmol/L, KCl: 4 mmol/L, CaCl2.2H2O: 1.8 mmol/L, MgCl2.6H2O: 1 mmol/L, glucose: 10 mmol/L, HEPES (4-(2-hydroxyethyl)-1-piperazineethanesulfonic acid): 10 mmol/L, pH=7.4) is applied to the cell for 10 minutes under room temperature conditions. The absolute value of the maximum tail current is determined from the obtained IKr with an analysis software (DataXpress ver. 1, Molecular Devices Corporation) based on a current value at a maintained membrane potential. Further, an inhibitory percentage relative to the maximum tail current before application of the test compound is calculated, and influence of the test compound on IKr is evaluated in comparison with the medium application group (0.1% dimethyl sulfoxide solution).

Solubility test = type: physicochemical; settings: kinetic from dmso stock; 1% DMSO, artificial intestinal juice pH 6.8, 16 hours at 25° C.
Procedure: The solubility of each compound is determined under 1% DMSO addition conditions. A 10 mM solution of the compound is prepared with DMSO, and 6 μL of the compound solution is added to 594 μL of an artificial intestinal juice (water and 118 mL of 0.2 mol/L NaOH reagent are added to 250 mL of 0.2 mol/L potassium dihydrogen phosphate reagent to reach 1000 mL) with a pH of 6.8. The mixture is left standing for 16 hours at 25° C., and the mixture is vacuum-filtered. The filtrate is two-fold diluted with methanol/water=1/1, and the compound concentration in the filtrate is measured with HPLC or LC/MS/MS by the absolute calibration method.

Metabolic stability test = type: in vitro ADME; settings: human liver microsomes 0.5 mg protein/mL, 1 mmol/L NADPH, 30 minutes at 37° C.
Procedure: The test compound is reacted with commercially available pooled human liver microsomes for a predetermined time period. The residual rate is calculated by comparing the reacted sample and unreacted sample, and thus the degree of metabolism in liver is evaluated. In 0.2 mL of a buffer (50 mmol/L tris-HCl pH 7.4, 150 mmol/L potassium chloride, 10 mmol/L magnesium chloride) containing human liver microsomes 0.5 mg protein/mL, reaction is carried out in the presence of 1 mmol/L NADPH for 0 minute or 30 minutes at 37° C. (oxidative reaction). After the reaction, 50 μL of the reaction solution is added to and mixed with 100 μl of a solution of methanol/acetonitrile=1/1 (v/v), and the mixture is centrifuged for 15 minutes at 3000 rpm. The test compound in the centrifuged supernatant is quantified by LC/MS/MS, and the residual amount of the test compound after the reaction is calculated based on the compound amount at O-minute reaction set as 100%.

γ-secretase = assay: Inhibition of γ-secretase activity: CTFβ ELISA in SH-SY5Y-APPwt cells; type: cell-based, human; settings: concentration 1-fold and 10-fold higher than IC50 for Aβ42 inhibition, 24 hours
Procedure: Inhibition of γ-secretase activity of the test compounds were evaluated by assessment of APP processing by γ-secretase, i.e., by measurement of a γ-secretase substrate C-terminal fragment β (CTFβ) in SH-SY5Y-APPwt cells. Cells were treated in test compound concentration 1-fold and 10-fold higher than its IC50 value for Aβ42 inhibition. CTFβ accumulated by inhibition of γ-secretase activity was quantified by an ELISA assay. SH-SY5Y-APPwt cells were generated from human SH-SY5Y neuroblast by transfection of human APP695 DNA as a stable cell-line and cultured in DMEM supplemented with 10% FCS. SHSY5Y-APPwt cells were plated at 1.0×10^6 cells/well/1 ml DMEM in 6-well plates. A solution of the test compound in DMSO was diluted with DMEM to a concentration 2-fold higher than the final concentration. 1 ml of the diluted solution was sufficiently mixed with the cell and the final DMEM solution was 2 mL/well. The final DMSO concentration was 1%. As a control compound, a γ-secretase inhibitor, DAPT (Calbiochem) was used. […] Protein concentrations in the supernatants were measured by Protein assay Kit (Pierce). The supernatants were diluted and used for CTFβ quantification by βCTF ELISA Kit (IBL) The results were shown as percentage to the CTFβ concentration of control group (added only DMSO) (% of Control), and increasing and decreasing CTFβ of the test compound was calculated. […]

T1 sequence (Q12809 whole entry): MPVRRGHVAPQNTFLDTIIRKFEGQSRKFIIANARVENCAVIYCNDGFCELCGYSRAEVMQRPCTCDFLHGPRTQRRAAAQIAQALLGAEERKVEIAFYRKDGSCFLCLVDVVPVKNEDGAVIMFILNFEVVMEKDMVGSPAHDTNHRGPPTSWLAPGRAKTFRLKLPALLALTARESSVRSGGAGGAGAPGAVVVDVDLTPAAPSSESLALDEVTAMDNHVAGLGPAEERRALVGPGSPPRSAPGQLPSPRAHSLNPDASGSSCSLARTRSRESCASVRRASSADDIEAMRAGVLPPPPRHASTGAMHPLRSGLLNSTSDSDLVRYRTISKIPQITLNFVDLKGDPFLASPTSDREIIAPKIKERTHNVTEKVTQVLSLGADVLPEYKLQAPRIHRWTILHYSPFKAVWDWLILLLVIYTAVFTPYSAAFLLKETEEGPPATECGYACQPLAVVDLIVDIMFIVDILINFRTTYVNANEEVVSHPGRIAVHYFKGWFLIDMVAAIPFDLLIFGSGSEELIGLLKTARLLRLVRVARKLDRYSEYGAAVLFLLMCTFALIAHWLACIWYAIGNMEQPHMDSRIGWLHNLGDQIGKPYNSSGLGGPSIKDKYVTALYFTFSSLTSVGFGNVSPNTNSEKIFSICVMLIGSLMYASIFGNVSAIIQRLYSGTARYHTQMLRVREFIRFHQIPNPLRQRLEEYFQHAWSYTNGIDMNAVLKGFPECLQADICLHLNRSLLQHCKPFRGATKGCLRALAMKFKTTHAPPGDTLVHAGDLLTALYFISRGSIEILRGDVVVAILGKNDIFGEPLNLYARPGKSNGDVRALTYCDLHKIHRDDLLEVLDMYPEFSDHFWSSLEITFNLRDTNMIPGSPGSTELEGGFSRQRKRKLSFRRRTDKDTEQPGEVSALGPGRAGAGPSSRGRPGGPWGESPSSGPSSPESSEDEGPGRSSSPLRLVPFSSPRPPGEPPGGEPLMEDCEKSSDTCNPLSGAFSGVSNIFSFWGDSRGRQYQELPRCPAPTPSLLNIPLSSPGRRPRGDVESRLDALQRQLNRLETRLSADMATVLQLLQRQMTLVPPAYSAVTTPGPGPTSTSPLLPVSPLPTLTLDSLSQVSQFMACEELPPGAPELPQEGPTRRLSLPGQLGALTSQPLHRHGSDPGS
Sequence of CYP3A4 (P08684 whole entry): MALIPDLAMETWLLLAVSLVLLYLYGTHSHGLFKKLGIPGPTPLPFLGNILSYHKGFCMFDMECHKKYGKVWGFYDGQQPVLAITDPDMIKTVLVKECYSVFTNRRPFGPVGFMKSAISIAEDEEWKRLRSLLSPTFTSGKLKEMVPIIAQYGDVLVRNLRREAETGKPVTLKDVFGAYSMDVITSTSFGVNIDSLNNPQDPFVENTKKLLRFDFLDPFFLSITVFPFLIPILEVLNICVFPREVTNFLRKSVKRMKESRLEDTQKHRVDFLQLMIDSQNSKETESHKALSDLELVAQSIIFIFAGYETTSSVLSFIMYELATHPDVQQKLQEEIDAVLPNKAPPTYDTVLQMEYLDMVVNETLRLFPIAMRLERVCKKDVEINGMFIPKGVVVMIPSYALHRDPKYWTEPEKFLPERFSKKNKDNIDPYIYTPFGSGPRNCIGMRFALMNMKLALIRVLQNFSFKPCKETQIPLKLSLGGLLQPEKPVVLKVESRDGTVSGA

## COc1cc(NS(=O)(=O)c2ccc(Cl)c(Cl)c2)ccc1-n1cnc(C)c1 [Compound 1]
CYP3A4
  CYP3A4 MBI: difference of the IC50 values: (−) (when the difference is 3 μM or lower, it is regarded as (−))
Aβ42 production
  IC50: 900 nM

## COc1cc(NS(=O)(=O)Cc2cccc(Cl)c2)ccc1-n1cnc(C)c1 [Compound 38]
Aβ42 production
  IC50: 6600 nM

## COc1cc(NS(=O)(=O)c2ccccc2F)ccc1-n1cnc(C)c1 [Compound 69]
hERG channel (IKr)
  inhibition at 10 min: 6.4%

## COc1cc(NS(=O)(=O)c2ccccc2[N+](=O)[O-])ccc1-n1cnc(C)c1 [Compound 74]
Solubility test
  solubility at 16 h: > 50 µM
hERG channel (IKr)
  inhibition at 10 min: 1.1%

## COc1cc(NS(=O)(=O)c2ccccc2-c2csc3ccccc23)ccc1-n1cnc(C)c1 [Compound 111]
CYP3A4
  CYP3A4 MBI: difference of the IC50 values: (−) (when the difference is 3 μM or lower, it is regarded as (−))

## COc1cc(NS(=O)(=O)c2ccc(Cl)nc2)ccc1-n1cnc(C)c1 [Compound 113]
Metabolic stability test
  residual amount of the test compound after the reaction: 97.0%
hERG channel (IKr)
  inhibition at 10 min: 8.5%

## COc1cc(NS(=O)(=O)c2cccnc2Cl)ccc1-n1cnc(C)c1 [Compound 115]
Metabolic stability test
  residual amount of the test compound after the reaction: 97.8%

## COc1cc(NS(=O)(=O)c2ccccc2-c2ccncc2)ccc1-n1cnc(C)c1 [Compound 178]
Solubility test
  solubility at 16 h: > 50 µM

## COc1cc(N2Cc3ccc(-c4ccccc4Cl)cc3C2=O)ccc1-n1cnc(C)c1 [Compound 189]
Aβ42 production
  IC50: 1600 nM

## COc1cc(N2CCC(NC(=O)c3cccc(Cl)c3)C2=O)ccc1-n1cnc(C)c1 (centres unmarked) [Compound 201]
Aβ42 production
  IC50: 800 nM

## COc1cc(N2CCC(NCc3ccc(Cl)cc3)C2=O)ccc1-n1cnc(C)c1 (centres unmarked) [Compound 231]
Aβ42 production
  IC50: 1800 nM

## COc1cc(N2CCC(C(c3ccccc3)c3ccccc3)C2=O)ccc1-n1cnc(C)c1 (centres unmarked) [Compound 259]
Aβ42 production
  IC50: 700 nM

## COc1cc(NC(=O)Cc2ccc(Cl)c(Cl)c2)ccc1-n1cnc(C)c1 [Compound E8]
Aβ42 production
  IC50: 1100 nM

## C[C@H](NC(=O)Cc1cc(F)cc(F)c1)C(=O)N[C@H](C(=O)OC(C)(C)C)c1ccccc1 [DAPT]
γ-secretase
  change of CTFβ: dose-dependently increased CTFβ
